Test results published in ChEMBL document CHEMBL1201862, “PubChem BioAssay data set” (2004).
Calls of active or inactive are those of the source.

Experiments:
[1] = biological target: T1, Intestinal-type alkaline phosphatase (Homo sapiens, UniProt P09923); assay: inhibition of human intestinal alkaline phosphatase – biochemical, dose response (AID 488876); type: functional
[2] = biological target: Intestinal-type alkaline phosphatase (Mus musculus, UniProt P24822); assay: PubChem AID 488785; type: functional
Intestinal-type alkaline phosphatase (Mus musculus, UniProt P24822), sequence (P24822 whole entry): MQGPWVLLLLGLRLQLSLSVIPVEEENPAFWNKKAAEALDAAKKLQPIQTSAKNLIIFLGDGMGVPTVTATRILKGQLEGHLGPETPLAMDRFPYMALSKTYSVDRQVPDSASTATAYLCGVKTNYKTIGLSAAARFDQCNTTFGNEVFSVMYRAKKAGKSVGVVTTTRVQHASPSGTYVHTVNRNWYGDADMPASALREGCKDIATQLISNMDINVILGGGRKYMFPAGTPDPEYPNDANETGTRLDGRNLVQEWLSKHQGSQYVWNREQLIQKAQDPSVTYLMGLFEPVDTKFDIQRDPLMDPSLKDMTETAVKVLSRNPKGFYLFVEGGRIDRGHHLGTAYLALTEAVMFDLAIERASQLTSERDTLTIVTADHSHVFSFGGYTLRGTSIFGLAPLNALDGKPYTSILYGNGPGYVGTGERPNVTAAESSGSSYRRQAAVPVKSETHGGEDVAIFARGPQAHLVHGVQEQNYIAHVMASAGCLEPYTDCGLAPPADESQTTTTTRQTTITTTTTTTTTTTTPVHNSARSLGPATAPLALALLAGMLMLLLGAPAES

[3] = biological target: T2, Alkaline phosphatase, tissue-nonspecific isozyme (Homo sapiens, UniProt P05186); assay: TNAP enzyme inhibition by screening hits, dose response, selectivity assay for mouse IAP inhibitor project, biochemical, human TNAP, uHTS hits (AID 488906); type: functional
T2 sequence (P05186 whole entry): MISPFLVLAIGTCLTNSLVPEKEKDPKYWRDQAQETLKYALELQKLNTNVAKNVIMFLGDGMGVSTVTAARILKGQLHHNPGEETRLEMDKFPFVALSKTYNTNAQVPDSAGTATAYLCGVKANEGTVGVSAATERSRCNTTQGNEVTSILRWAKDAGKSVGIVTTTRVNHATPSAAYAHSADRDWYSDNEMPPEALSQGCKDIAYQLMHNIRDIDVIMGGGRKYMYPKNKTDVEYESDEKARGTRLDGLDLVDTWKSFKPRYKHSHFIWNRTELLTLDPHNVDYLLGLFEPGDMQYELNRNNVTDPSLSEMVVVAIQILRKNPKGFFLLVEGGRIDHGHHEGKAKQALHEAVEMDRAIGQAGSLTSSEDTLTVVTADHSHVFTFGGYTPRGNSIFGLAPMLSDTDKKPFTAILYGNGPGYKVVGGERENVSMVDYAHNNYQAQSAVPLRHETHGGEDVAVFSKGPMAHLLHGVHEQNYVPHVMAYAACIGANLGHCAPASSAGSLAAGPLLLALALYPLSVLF

[4] = biological target: T3, Histone-lysine N-methyltransferase NSD2 (Homo sapiens, UniProt O96028); type: biochemical
T3 sequence (O96028 whole entry): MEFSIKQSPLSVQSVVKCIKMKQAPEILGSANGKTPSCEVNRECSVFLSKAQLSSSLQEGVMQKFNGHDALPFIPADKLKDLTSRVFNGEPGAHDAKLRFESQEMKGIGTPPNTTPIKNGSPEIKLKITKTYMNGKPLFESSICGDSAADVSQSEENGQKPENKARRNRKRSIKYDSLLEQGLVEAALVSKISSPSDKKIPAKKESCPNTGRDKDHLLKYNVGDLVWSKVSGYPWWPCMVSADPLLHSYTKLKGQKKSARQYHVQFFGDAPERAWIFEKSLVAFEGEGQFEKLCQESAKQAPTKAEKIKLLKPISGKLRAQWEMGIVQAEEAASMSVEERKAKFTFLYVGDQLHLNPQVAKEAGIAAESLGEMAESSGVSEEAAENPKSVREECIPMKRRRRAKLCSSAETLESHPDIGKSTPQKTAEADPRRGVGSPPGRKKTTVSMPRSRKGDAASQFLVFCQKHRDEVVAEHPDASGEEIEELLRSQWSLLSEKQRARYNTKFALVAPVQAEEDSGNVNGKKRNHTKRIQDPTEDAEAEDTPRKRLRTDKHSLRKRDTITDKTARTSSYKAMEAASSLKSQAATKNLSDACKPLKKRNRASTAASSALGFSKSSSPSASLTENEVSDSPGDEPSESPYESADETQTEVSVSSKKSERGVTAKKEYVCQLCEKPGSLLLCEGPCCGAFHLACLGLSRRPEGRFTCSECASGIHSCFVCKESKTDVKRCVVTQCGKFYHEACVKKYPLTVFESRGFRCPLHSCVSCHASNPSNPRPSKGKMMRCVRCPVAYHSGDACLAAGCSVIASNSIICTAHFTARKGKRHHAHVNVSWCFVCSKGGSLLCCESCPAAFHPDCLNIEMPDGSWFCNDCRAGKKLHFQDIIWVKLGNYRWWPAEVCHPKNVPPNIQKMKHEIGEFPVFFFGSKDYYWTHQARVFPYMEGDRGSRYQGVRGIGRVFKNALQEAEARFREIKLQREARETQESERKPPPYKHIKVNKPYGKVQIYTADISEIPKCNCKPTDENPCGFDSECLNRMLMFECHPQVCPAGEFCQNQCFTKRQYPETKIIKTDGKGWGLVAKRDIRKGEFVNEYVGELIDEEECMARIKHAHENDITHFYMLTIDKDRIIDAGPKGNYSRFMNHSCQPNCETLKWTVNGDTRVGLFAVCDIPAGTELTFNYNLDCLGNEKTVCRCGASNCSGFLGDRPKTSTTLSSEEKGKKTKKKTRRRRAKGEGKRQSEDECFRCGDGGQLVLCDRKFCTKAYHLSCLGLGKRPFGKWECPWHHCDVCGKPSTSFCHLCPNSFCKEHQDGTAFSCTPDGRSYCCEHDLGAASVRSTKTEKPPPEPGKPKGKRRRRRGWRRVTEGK

[5] = Counterscreen for AddAB inhibitors: absorbance-based bacterial cell-based high throughput dose response assay for inhibitors of bacterial viability. [Related pubchem assays (depositor defined):AID435030, AID449728, AID449731, AID488942, AID488955, AID488956]; type: functional
Exodeoxyribonuclease V = Exodeoxyribonuclease V (Escherichia coli (strain K12), UniProt P04993+P07648+P08394); assay: RecBCD inhibition via phage-restricted bacterial growth – absorbance, V66 E. coli, mutant T4 phage, counter-screen for AddAB inhibitor project, dose response (AID 492957); type: functional, cell-based, Escherichia coli str. K-12 substr. MG1655
Exodeoxyribonuclease V, sequence (P04993 whole entry): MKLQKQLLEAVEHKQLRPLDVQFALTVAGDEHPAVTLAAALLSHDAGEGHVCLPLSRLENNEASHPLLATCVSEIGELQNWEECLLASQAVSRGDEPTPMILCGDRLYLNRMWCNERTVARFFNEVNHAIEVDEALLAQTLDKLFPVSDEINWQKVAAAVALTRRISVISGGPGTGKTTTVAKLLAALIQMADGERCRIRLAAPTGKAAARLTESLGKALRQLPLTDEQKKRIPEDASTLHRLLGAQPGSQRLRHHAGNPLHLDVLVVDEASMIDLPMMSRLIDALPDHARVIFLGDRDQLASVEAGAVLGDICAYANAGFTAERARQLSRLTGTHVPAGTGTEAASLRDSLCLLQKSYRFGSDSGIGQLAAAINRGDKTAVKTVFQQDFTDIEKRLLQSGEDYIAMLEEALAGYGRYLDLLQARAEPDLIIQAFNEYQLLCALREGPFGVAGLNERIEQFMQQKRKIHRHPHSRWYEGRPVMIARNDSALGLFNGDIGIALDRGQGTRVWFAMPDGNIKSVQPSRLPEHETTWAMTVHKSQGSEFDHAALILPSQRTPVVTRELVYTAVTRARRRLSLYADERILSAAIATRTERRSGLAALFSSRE
Exodeoxyribonuclease V, sequence (P07648 whole entry): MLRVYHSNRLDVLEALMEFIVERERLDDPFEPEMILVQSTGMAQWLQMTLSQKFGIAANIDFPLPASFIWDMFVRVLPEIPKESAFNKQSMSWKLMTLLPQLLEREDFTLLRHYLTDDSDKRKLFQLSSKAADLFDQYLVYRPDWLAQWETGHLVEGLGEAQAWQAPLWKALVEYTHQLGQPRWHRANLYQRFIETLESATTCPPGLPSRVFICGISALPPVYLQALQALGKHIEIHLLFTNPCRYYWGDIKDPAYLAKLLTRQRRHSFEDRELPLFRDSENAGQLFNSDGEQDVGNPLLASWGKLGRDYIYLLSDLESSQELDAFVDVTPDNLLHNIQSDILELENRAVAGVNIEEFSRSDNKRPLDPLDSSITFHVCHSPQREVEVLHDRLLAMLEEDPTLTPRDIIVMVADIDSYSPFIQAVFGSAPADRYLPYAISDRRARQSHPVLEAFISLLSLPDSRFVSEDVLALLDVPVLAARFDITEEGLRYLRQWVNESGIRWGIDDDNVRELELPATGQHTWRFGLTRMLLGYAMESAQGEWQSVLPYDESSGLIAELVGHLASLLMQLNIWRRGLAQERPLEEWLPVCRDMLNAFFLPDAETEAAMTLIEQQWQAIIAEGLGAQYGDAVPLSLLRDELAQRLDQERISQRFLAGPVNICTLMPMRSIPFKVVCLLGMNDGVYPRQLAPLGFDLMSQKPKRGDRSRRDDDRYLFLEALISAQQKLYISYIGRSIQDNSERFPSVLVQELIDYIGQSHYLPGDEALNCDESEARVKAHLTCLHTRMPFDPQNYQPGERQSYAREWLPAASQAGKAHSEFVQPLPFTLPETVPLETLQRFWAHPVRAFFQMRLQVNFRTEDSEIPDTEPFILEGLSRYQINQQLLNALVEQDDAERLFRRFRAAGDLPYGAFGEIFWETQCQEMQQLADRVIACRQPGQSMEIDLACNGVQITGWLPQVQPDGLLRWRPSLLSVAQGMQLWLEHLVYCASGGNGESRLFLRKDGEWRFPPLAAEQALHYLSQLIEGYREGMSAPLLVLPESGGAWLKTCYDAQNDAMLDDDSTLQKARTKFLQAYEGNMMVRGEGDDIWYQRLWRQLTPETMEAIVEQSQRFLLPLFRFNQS
Exodeoxyribonuclease V, sequence (P08394 whole entry): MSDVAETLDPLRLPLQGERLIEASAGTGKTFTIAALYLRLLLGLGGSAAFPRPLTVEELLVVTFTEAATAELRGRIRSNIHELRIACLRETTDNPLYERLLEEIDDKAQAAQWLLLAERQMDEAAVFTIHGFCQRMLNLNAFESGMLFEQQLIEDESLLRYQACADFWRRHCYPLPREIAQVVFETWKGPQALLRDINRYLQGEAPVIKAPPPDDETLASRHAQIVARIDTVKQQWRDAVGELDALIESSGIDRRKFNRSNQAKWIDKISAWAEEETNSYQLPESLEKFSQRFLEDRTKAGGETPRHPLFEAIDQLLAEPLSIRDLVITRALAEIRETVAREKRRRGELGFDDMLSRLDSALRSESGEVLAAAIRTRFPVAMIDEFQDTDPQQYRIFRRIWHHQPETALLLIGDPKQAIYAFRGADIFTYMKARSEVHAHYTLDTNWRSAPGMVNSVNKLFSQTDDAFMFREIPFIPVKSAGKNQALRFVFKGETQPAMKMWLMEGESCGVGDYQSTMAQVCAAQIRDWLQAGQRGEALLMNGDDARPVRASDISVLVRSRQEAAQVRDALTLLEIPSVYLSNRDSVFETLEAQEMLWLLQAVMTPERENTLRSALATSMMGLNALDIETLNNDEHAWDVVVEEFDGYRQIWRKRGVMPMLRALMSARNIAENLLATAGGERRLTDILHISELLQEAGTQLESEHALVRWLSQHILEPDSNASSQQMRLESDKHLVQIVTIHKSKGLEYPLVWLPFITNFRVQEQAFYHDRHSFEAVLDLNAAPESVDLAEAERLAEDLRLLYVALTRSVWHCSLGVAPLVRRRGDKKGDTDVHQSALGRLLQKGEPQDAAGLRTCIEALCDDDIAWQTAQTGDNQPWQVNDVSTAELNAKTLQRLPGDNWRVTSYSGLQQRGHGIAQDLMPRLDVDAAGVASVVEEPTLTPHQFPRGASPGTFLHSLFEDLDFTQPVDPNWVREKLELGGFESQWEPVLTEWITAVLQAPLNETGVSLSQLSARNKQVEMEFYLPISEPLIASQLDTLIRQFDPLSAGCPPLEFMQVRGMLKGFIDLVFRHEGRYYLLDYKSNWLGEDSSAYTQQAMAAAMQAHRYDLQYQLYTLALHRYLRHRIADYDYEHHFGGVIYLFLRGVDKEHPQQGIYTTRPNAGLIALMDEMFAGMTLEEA

Tumor necrosis factor = Tumor necrosis factor (Homo sapiens, UniProt P01375); assay: analog potency on TNFa NF-kB signaling – cell-based, revised, SAR follow-up (AID 2337); type: functional
HEK293 [6] = assay: cells; conditions: Homo sapiens
[7] = biological target: Nucleotide-binding oligomerization domain-containing protein 1 (Homo sapiens, UniProt Q9Y239); assay: blockers of NOD1 pathway activity – revised, SAR follow-up (AID 2333); type: functional
Nucleotide-binding oligomerization domain-containing protein 1, sequence (Q9Y239 whole entry, the tested form may be a part): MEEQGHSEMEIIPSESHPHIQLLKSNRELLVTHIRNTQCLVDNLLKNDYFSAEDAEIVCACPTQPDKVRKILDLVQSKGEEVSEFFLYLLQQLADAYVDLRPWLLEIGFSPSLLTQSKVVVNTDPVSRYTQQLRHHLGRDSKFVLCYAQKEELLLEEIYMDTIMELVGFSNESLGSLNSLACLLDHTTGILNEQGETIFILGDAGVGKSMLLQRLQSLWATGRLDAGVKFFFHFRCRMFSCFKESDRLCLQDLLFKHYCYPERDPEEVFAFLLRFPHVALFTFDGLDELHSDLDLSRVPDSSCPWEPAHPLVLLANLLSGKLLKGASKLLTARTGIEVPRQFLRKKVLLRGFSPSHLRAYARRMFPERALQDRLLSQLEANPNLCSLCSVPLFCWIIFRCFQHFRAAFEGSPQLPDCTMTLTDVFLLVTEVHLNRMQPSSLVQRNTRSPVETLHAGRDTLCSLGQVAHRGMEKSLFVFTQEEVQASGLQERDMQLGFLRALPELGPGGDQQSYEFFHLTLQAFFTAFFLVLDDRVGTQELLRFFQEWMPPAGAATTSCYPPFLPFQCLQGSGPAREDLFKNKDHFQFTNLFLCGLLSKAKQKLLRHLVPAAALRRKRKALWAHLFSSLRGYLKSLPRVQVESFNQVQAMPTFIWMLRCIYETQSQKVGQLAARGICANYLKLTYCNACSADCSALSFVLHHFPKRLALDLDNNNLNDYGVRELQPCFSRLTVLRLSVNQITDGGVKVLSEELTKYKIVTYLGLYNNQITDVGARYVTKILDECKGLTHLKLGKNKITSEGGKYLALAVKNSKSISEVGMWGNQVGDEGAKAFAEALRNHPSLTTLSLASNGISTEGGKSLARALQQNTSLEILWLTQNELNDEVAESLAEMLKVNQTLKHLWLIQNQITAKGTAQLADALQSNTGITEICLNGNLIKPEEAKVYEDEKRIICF

[8] = system: Streptococcus sp. 'group A'; assay: Streptococcus pyogenes SK(-)GAS viability under kanamycin – luminescence, BacTiterGlo, confirmation, counter-screen for streptokinase expression inhibitor project, dose response (AID 1900); type: functional, organism-based
[9] = alpha-synuclein stem-loop luciferase translation blockers – H4 neuroglioma cells, luminescence, confirmation (AID 1988); type: functional, cell-based
Streptococcus = assay: GAS UMAA2166 growth inhibition – luminescence, BacTiterGlo, counter-screen for streptokinase expression inhibitor project, dose response (AID 1915); type: functional, organism-based;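 note: potency for reduction of bacterial viability or growth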
[10] = biological target: Nucleotide-binding oligomerization domain-containing protein 2 (Homo sapiens, UniProt Q9HC29); assay: inhibition of NOD2-driven NF-kB reporter – cell-based, luminescence, uHTS, HEK293 (AID 1566); type: functional
[11] = biological target: Heat shock protein HSP 90-alpha (Homo sapiens, UniProt P07900); type: functional, organism-based
[12] = Luminescence-based dose response cell-based high throughput screening assay for cytotoxic compounds using the IEC-6 intestinal epithelial cell line. [Related pubchem assays: 1858 (Summary AID.), 1825 (Counterscreen.), 1907 (Confirmation screen.)]; type: functional
[13] = DRD fibroblast viability loss – cell-based, non-viral oncogenic, luminescence, dose response (AID 1934); type: functional; conditions: Homo sapiens
cells [14] = type: functional, cell-based
[15] = NIH-3T3 fibroblast cytotoxicity, dose response, cytotoxicity control, cell-based, fluorescence, Alamar Blue, secondary assay (AID 2327); type: functional;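 note: NIH-3T3 mouse fibroblasts cultured with fluconazole at 8 µg/mL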
BJ [16] = assay: BJ-TERT-LT-ST fibroblast viability loss – cell-based, RAS-independent, luminescence, dose response (AID 1935); type: functional; conditions: Homo sapiens;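 note: BJ fibroblasts immortalized with TERT plus LT and ST oncogenes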
INS1 = assay: INS-1E survival protection against cytokine death – cell-based, luminescence, retest, dose response (AID 449756); type: functional; conditions: Rattus norvegicus;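 note: cell death triggered by IL-1 beta plus TNF-alpha plus IFN-gamma mixture; protective hits raise ATP signal compared with cytokine alone wells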
BJ [17] = assay: BJ-TERT fibroblast viability loss – cell-based, RAS-independent, luminescence, dose response (AID 1933); type: functional; conditions: Homo sapiens
[18] = biological target: T4, Heat shock factor protein 1 (Mus musculus, UniProt P38532); assay: decrease of HSF1-responsive luciferase luminescence – cell-based, NIH3T3, dose retest, confirmation (AID 2382); type: functional;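 note: NIH3T3 fibroblasts with HSF1-driven luciferase reporter stressed by proteasome inhibitor MG132; luminescence from HSF1-driven luciferase expression after 8 hours of MG132 stress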
T4 sequence (P38532 whole entry): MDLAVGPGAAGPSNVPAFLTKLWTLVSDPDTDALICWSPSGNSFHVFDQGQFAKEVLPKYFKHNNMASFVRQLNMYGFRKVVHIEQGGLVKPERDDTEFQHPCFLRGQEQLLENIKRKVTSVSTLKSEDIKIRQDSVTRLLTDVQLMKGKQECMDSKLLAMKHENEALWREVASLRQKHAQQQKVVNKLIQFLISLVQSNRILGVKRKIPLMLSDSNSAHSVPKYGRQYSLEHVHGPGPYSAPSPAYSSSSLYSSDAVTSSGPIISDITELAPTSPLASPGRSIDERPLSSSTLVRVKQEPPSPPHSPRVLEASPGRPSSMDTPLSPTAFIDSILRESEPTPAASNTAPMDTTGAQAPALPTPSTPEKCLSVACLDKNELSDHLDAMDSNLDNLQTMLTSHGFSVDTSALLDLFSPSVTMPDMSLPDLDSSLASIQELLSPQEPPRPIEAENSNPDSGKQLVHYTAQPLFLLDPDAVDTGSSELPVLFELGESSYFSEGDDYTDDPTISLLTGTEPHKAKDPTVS

[19] = luciferase reporter signal suppression in cells – H4 neuroglioma cells, luminescence, dose response (AID 1990); type: functional, cell-based
Streptokinase A = biological target: T5, Streptokinase A (Streptococcus pyogenes serotype M1, UniProt P10520); assay: viability-normalized secreted streptokinase activity reduction – plasminogen activation absorbance, OD405, dose response (AID 1914); type: functional, Streptococcus pyogenes M1 GAS;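 note: secreted streptokinase activity via plasminogen activation per viability signal from cell pellet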
T5 sequence (P10520 whole entry): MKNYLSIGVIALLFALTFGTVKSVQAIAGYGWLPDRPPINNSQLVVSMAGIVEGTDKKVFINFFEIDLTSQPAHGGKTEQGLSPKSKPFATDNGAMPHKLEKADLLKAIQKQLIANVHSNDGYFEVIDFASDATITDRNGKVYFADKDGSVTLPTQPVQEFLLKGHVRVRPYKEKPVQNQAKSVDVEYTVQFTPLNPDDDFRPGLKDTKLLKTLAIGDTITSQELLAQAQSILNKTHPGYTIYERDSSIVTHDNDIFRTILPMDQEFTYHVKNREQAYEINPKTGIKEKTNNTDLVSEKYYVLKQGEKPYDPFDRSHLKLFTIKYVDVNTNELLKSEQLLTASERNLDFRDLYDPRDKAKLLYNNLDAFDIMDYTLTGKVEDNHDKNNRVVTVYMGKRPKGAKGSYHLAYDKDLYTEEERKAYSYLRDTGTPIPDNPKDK

BJ [20] = assay: growth inhibition of engineered Ras-driven BJ cells – cell-based, alamar blue fluorescence, cherrypicked samples, dose response (AID 2631); type: functional; conditions: Homo sapiens;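 note: confirmatory dose-response assay in RAS-dependent BJ fibroblasts engineered with TERT, LT and ST, with cytotoxicity read by fluorescence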
cells [21] = type: functional, cell-based; remark: listed apart in the source
HEK293 [22] = assay: cells; type: functional, cell-based; conditions: Homo sapiens
HEK293 [23] = assay: inhibition of NOD1-driven NF-kB reporter – cell-based, luminescence, uHTS, primary screen (AID 1578); type: functional; conditions: Homo sapiens
HEK293 [24] = assay: NOD2 signaling inhibitors in MDP-stimulated cells, cell-based, uHTS, luminescence (AID 2001); type: functional; conditions: Homo sapiens
BJ [25] = assay: cells; type: functional, cell-based; conditions: Homo sapiens
[26] = fluconazole-exposed Candida albicans growth modulators – fluorescence, retest, confirmation (AID 2467); type: functional, cell-based
[27] = Luminescence Cell-Based Dose Response HTS to Identify Inhibitors of 5'UTR Stem-Loop Driven Prion Protein mRNA Translation in H4 Neuroglioblastoma Cells. [Related pubchem assays: 1827 (Project Summary), 1813 (Primary HTS)]; type: functional
HEK293 [28] = assay: cells; type: functional, cell-based; conditions: Homo sapiens; remark: listed apart in the source
[29] = biological target: T1, Intestinal-type alkaline phosphatase; assay: Dose Response confirmation of uHTS hits from a small molecule inhibitors of human intestinal alkaline phosphatase via a luminescent assay. [Related pubchem assays (depositor defined):AID2544, AID2574]; type: functional

T1 sequence (P09923 whole entry): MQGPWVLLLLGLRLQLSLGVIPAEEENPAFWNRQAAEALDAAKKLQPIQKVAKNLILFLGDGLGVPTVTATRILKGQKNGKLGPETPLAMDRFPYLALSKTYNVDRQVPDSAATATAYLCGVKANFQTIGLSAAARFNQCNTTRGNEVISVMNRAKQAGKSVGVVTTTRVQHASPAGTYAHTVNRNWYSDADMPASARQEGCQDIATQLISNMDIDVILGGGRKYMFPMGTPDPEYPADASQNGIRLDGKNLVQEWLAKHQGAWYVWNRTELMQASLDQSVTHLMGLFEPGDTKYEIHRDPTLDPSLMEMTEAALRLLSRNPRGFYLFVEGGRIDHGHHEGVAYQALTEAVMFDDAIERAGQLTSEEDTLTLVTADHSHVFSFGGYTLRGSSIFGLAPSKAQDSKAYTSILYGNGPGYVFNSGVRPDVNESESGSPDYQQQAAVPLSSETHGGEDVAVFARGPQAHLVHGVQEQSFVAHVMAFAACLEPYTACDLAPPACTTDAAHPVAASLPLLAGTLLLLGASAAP

## CN1C(=O)NC(=O)/C(=C/c2ccc([N+](=O)[O-])o2)C1=O
[1]
  IC50: > 100 µM (inactive)
[2]
  IC50: 43.8 µM (active)
[3]
  IC50: > 100 µM (inactive)
[4]
  AC50: 15.4 µM (active)

## Cc1ccc(NC(=O)Cn2cnc3ccccc32)cc1C
[5]
  IC50: > 119 µM (inactive)
Exodeoxyribonuclease V
  IC50: > 119 µM (inactive)

## O=C(CSc1nc(O)c2c(-c3ccccc3)csc2n1)NC1CCCCC1
Tumor necrosis factor
  IC50: > 20 µM (inactive)
HEK293 [6]
  IC50: > 20 µM (inactive)
[7]
  IC50: > 20 µM (inactive)

## Cc1ccc(C(C)C)c(OCc2ccc(C(=O)N/N=C/c3cccc(O)c3O)cc2)c1
[8]
  EC50: 1.87 µM (active)
[9]
  EC50: 0.976 µM (active)
Streptococcus
  EC50: 5.32 µM (active)
[10]
  EC50: > 20 µM (inactive)
[11]
  AC50: 4.01 µM (active)
[12]
  IC50: 1.67 µM (active)
[13]
  EC50: 4.88 µM (active)
Cells [14]
  EC50: 6.18 µM (active)
[15]
  EC50: 3.17 µM (active)
BJ [16]
  EC50: 7.23 µM (active)
INS1
  AC50: 0.832 µM (active)
BJ [17]
  EC50: 9.95 µM (active)
[18]
  EC50: 1.24 µM (active)
[19]
  EC50: 0.54 µM (active)
Streptokinase A
  EC50: > 150 µM (not active)
BJ [20]
  EC50: 0.533 µM (active)
Cells [21]
  EC50: > 350 µM (not active)
HEK293 [22]
  IC50: > 20 µM (inactive)
HEK293 [23]
  EC50: > 20 µM (inactive)
HEK293 [24]
  IC50: > 20 µM (inactive)
BJ [25]
  EC50: 2.58 µM (active)
[5]
  IC50: > 119 µM (inactive)
[26]
  EC50: 0.928 µM (active)
[27]
  EC50: 0.979 µM (active)
HEK293 [28]
  IC50: 1.16 µM (active)
Exodeoxyribonuclease V
  IC50: > 119 µM (inactive)

## O=c1c(O[C@@H]2O[C@H](CO)[C@@H](O)[C@H](O)[C@H]2O)c(-c2ccc(O)c(O)c2)oc2cc(O)cc(O)c12 [ISOQUERCETIN]
[29]
  IC50: 5.25 µM (active)
[1]
  IC50: 8.96 µM (active)
[2]
  IC50: 1.66 µM (active)
[3]
  IC50: 14 µM (active)
